Results published in publication PMC4550478, “Metronidazole-triazole conjugates: Activity against Clostridium difficile and parasites” (European Journal of Medicinal Chemistry, 2015).
In brackets after ≈: the same amount, converted by molar mass. Where two headings read alike, the source gives them in different places.

Legend:
[1] = test system: C. difficile VPI10463 ATCC 43255; test: MIC broth microdilution, C. difficile VPI 10463; type: cell-based, Clostridium difficile; conditions: Clostridioides difficile, ATCC 43255 / ATCC BAA-1803; VPI 10463, MtzS, 24 h, median of at least n = 4
Procedure: (§1) All compounds were tested for activity against a set of anaerobic C. difficile bacteria (630 ATCC BAA-1382, NAP1/027 M7404, NAP1/027 ATCC BAA-1803, VPI10463 ATCC 43255, CD26A54_S and CD26A54_R) and representative ESKAPE pathogens S. aureus (MRSA ATCC 43300), E. coli (ATCC 25922), K. pneumoniae (ATCC 700603), A. baumannii (ATCC 19606) and P. aeruginosa (ATCC 27853) using a standard broth microdilution assay. Selected compounds were tested for activity against H. pylori strains (26695, and clinical isolates MtzS 13/25, MtzR 98/285 and MtzR 13/61) using agar plate dilution, and for antimicrobial activity against […] Gram-positive bacterial strains: Enterococcus faecalis (VanA clinical isolate), Enterococcus faecium (MDR VanA ATCC 51559), Streptococcus pneumoniae (MDR ATCC 700677), S. aureus (MRSA ATCC 43300, MRSA clinical isolate, MRSA/DRSA clinical isolate, GISA NARSA NRS 1, GISA NARSA NRS 17, VRSA NARSA VRS1, VRSA NARSA VRS4 and VRSA NARSA VRS10) using broth microdilution. C. difficile strains were grown at 37 °C in a COY anaerobic chamber (5% H2, 10% CO2, 85% N2). H. pylori strains were grown at 37 °C under a microaerobic atmosphere (5% O2, 10% CO2). All facultative anaerobic bacteria were grown at 37 °C with normal atmospheric oxygen levels. All experiments were performed in duplicate with metronidazole, vancomycin, linezolid or colistin as positive controls for relevant strains (see Table 1). Positive growth control of bacteria and DMSO as well as a negative control of only media were included for every plate. Full assay details are provided in the supplementary information.
(§2) C. difficile ATCC BAA-1382, ATCC BAA-1803, ATCC 43255 and M7404 heat shocked spore stocks (10 µL) were transferred into the anaerobic chamber and 10 µL streaked onto pre-reduced (at least 2.5 hr in anaerobic chamber) BHIS agar plates supplemented with 0.1% w/v sodium taurocholate (BHIS(TA)). Plates were incubated for 24 hours prior to assay to give colonies of size 1-3mm diameter with characteristic uneven borders.
(§3) The minimum inhibition concentration was determined according to the CLSI Methods with modifications in broth and inoculum for C. difficile according to Babakhani et al.^7,8 Briefly, compounds were prepared to 20X final concentration in 100% water, 60% DMSO and 40% water or 60% DMSO and 40% media. The compounds along with standard antibiotics were serially diluted two-fold across the wells of 96-well non-binding surface plates (Non binding surface, Corning). The plates were placed in the anaerobic chamber overnight to reduce. C. difficile bacteria from BHIS(TA) agar plates were cultured anaerobically in BHIS at 37 °C overnight. A sample of culture was then diluted 40-fold in BHIS broth and incubated at 37 °C for approximately 4.5 hrs. The resultant mid-log phase culture (OD600= 0.5-0.6) was diluted to the final concentration of ~1×10^6 CFU/mL, then 50 µL was added to each well of the compound-containing 96-well plates. This gave final cell concentration of 5×10^5 CFU/mL, final volume 100 µL and 3% maximum DMSO concentration. Compound concentration was typically from 64 to 0.03 µg/mL. An antibiotic standard was included on each 96 well plate as well as a positive growth control (no compound) and sterility control (no bacteria). All the plates were covered and incubated at 37 °C for 24 h. MICs were the lowest concentration showing no visible growth.

[2] = test system: C. difficile 630 ATCC BAA-1382; test: MIC broth microdilution, C. difficile 630; type: cell-based, Clostridium difficile; conditions: Clostridioides difficile, ATCCBAA1382, MtzS, 24 h, median of at least n = 4
Procedure: as §1, §2, §3

[3] = test system: H. pylori clinical isolate 13/25; test: MIC agar dilution, H. pylori 13/25; type: cell-based; conditions: Helicobacter pylori, MtzS clinical isolate
Procedure: as §1
Helicobacter pylori strains, with a range of resistance levels to metronidazole (256 µg/ml, 64 µg/ml, 24 µg/ml, 2 µg/ml, and 0.04 µg/ml), were selected and obtained from Helicobacter Research Laboratory, University of Western Australia. The resistance strength to metronidazole was recorded according to eTest (bioMérieux). H. pylori strain 26695 was used as the control. H. pylori was maintained on the non-selective Columbia blood agar plates (CBA) (Columbia agar base Oxoid) with 5% horse blood and incubated at 37 °C and 10% CO2 for 48 hrs. […] Each of the H. pylori strains were harvested, OD600 calibrated to 0.3, and spotted in triplicate on CBA pre-mixed with the compound. The lowest concentration of antibiotic showing no growth was read as the MIC. The experiment was performed in duplicate.

[4] = test system: C. difficile NAP1/027 ATCC BAA-1803; test: MIC broth microdilution, C. difficile NAP1/027 ATCC BAA-1803; type: cell-based, Clostridium difficile; conditions: Clostridioides difficile
Procedure: as §1, §2
as §3, with “All the plates were covered and incubated at 37 °C for 24 h.” left out

[5] = test system: C. difficile NAP1/027 M7404; test: MIC broth microdilution, C. difficile NAP1/027 M7404; type: cell-based, Clostridium difficile; conditions: Clostridioides difficile, NAP1/027M7404; NAP1/027 (footnote d: M7404), MtzS, 24 h, median of at least n = 4
Procedure: as §1, §2, §3

[6] = ATCC 43255 / ATCC BAA-1803, NAP1/027 (footnote c: ATCC 43255), MtzS, 24 h, median of at least n = 4, read-out: MIC C. difficile NAP1/027 (footnote c)
[7] = ATCCBAA1803, 24 hr incubation, read-out: MIC C. difficile NAP1/027 ATCC BAA-1803 24 hr
[8] = ATCCBAA1803, 48 hr incubation, read-out: MIC C. difficile NAP1/027 ATCC BAA-1803 48 hr

Row | SMILES | MIC [1] | MIC [2] | MIC [3] | MIC [4, 6] | MIC [4, 7] | MIC [4, 8] | MIC [5]
1 | Cc1ncc([N+](=O)[O-])n1CCn1cc(Cn2cccn2)nn1 [Compound 4g, 1-(2-(2-methyl-5-nitro-1H-imidazol-1-yl)ethyl)-4-((1H-pyrazol-1-yl)methyl)-1H-1,2,3-triazole] | 1 µg/mL (≈ 3.31 µM) | 1 µg/mL (≈ 3.31 µM) | 2 µg/mL (≈ 6.62 µM) | 1 µg/mL (≈ 3.31 µM) | 1 µg/mL (≈ 3.31 µM) | 1 to 2 µg/mL (≈ 3.31 to 6.62 µM) | 1 µg/mL (≈ 3.31 µM)
2 | Cc1ncc([N+](=O)[O-])n1CCn1cc(-c2ccccn2)nn1 [Compound 4h, 1-(2-(2-methyl-5-nitro-1H-imidazol-1-yl)ethyl)-4-(2-pyridinyl)-1H-1,2,3-triazole.xTFA] | 0.5 µg/mL | 0.5 µg/mL | 1 µg/mL | 0.5 µg/mL | 0.5 µg/mL | 0.5 to 1 µg/mL | 0.5 µg/mL
3 | Cc1ncc([N+](=O)[O-])n1CCO [Compound 1, metronidazole] | 0.5 µg/mL (≈ 2.92 µM) | 0.5 µg/mL (≈ 2.92 µM) | 4 to 8 µg/mL (≈ 23.4 to 46.7 µM) | 0.5 µg/mL (≈ 2.92 µM) | 0.5 µg/mL (≈ 2.92 µM) | 0.5 µg/mL (≈ 2.92 µM) | 0.5 µg/mL (≈ 2.92 µM)
4 | COC(=O)c1cn(CCn2c([N+](=O)[O-])cnc2C)nn1 [Compound 4f, 1-(2-(2-methyl-5-nitro-1H-imidazol-1-yl)ethyl)-4-(methoxycarbonyl)-1H-1,2,3-triazole] | 1 µg/mL (≈ 3.57 µM) | 1 µg/mL (≈ 3.57 µM) | 32 to 64 µg/mL (≈ 114 to 228 µM) | 1 µg/mL (≈ 3.57 µM) | 1 µg/mL (≈ 3.57 µM) | 1 µg/mL (≈ 3.57 µM) | 1 µg/mL (≈ 3.57 µM)
5 | Cc1ncc([N+](=O)[O-])n1CCn1cc(C(=O)O)nn1 [Compound 4s, 1-(2-(2-methyl-5-nitro-1H-imidazol-1-yl)ethyl)-4-(carboxy)-1H-1,2,3-triazole] | 64 µg/mL (≈ 240 µM) | 64 µg/mL (≈ 240 µM) | > 64 µg/mL | 64 µg/mL (≈ 240 µM) | 64 µg/mL (≈ 240 µM) | 64 µg/mL (≈ 240 µM) | 64 µg/mL (≈ 240 µM)
6 | Cc1ncc([N+](=O)[O-])n1CCn1cc(CN(C)Cc2ccccc2)nn1 [Compound 4m, 1-(2-(2-methyl-5-nitro-1H-imidazol-1-yl)ethyl)-4-(N-benzyl, N-methylaminomethyl)-1H-1,2,3-triazole] | 1 to 2 µg/mL (≈ 2.81 to 5.63 µM) | 2 µg/mL (≈ 5.63 µM) | 2 µg/mL (≈ 5.63 µM) | 1 µg/mL (≈ 2.81 µM) | 2 µg/mL (≈ 5.63 µM) | 1 to 2 µg/mL (≈ 2.81 to 5.63 µM) | 2 µg/mL (≈ 5.63 µM)
7 | Cc1ncc([N+](=O)[O-])n1CCn1cc(C(O)c2ccccc2)nn1 (stereo not drawn) [Compound 4l, 1-(2-(2-methyl-5-nitro-1H-imidazol-1-yl)ethyl)-4-(1-phenyl-1-hydroxylmethyl)-1H-1,2,3-triazole] | 0.5 µg/mL (≈ 1.52 µM) | 1 µg/mL (≈ 3.05 µM) | – | 1 µg/mL (≈ 3.05 µM) | 0.5 to 1 µg/mL (≈ 1.52 to 3.05 µM) | 1 µg/mL (≈ 3.05 µM) | 0.5 to 1 µg/mL (≈ 1.52 to 3.05 µM)
